Measured values: US12195760B2, “Method for enhancing proliferation capability of stem cells using ethionamide” (SAMSUNG LIFE PUBLIC WELFARE FOUNDATION, priority 2016, dated 2025)

Columns and labels:
[1] = system: human umbilical cord mesenchymal stem cells
Method: After 72 hours, cell proliferation analysis was performed. For this purpose, a BrdU cell proliferation assay kit (Cell Signaling Technology, USA) using 5-bromo-2′-deoxyuridine (BrdU) bound during DNA synthesis in cells was used. Specifically, BrdU was added to cells, and reacted for 24 hours. Thereafter, the cells were immobilized, and DNA was denatured. Then, the cells were treated with an anti-BrdU antibody, and then reacted with a tetramethylbenzidine (TMB) substrate using a secondary antibody conjugated with horse-radish peroxidase (HRP), and an absorbance value was measured at 450 nm using an ELISA reader.

[2] = system: human umbilical cord mesenchymal stem cells; settings: ethionamide-primed MSCs compared to control not treated; Oil red O, Alizarin Red S, Safranin-O; FIGS. 3A to 3C
Method: Specifically, to induce differentiation into adipocytes or osteocytes, human umbilical cord mesenchymal stem cells (1×10^5 cells) cultured in a medium treated with ethionamide were seeded in a 6-well plate, and the differentiation was induced for approximately 3 weeks using adipogenesis/osteogenesis differentiation kits (Gibco, USA) while replacing the medium with a fresh medium twice a week. Thereafter, the cells differentiated into adipocytes and osteocytes were stained with Oil red O and Alizarin Red S to check whether the cells were differentiated into adipocytes and osteocytes. Quantification of the adipocytes was carried out by completely removing the medium from differentiation culture containers, drying the culture containers, putting 100% isopropanol into the culture containers, culturing the cells at room temperature for 10 minutes, thoroughly mixing the differentiated cells with 100% isopropanol, and measuring an absorbance at 500 nm to quantify the degree of differentiation. Quantification of the osteocytes was carried out by quantifying the degree of differentiation using an Alizarin Red S staining quantification assay kit (ScienCell, USA). […]

[3] = system: human umbilical cord mesenchymal stem cells; settings: ethionamide-primed MSCs compared to control not treated
Method: More specifically, the human umbilical cord mesenchymal stem cells (2×10^5 cells) were equally divided into 1.5 ml microtubes, treated with 100 μL of phosphate-buffered saline (PBS) containing 2% FBS, treated with an antibody bound to fluorescein isothiocyanate (FITC), phycoerythrin (PE), or allophycocyanin (APC), and then reacted at room temperature for 20 minutes. […] After the reaction, an antibody reaction was neutralized with PBS containing 2% FBS, and it was then determined whether the positive and negative markers were expressed using a flow cytometer.

## CCc1cc(C(N)=S)ccn1 [ethionamide, 2-ethylpyridine-4-carbothioamide]
[1]; 10 uM or 100 uM ethionamide, treated for 72 hours, FIG. 1B
  proliferation rate according to treatment time: most significantly enhanced
[1]; ethionamide at a concentration of 50 uM or more (tested 1 to 500 μM), 72 hours, BrdU absorbance 450 nm, FIG. 1A
  proliferation rate of the cells according to treatment concentration: significantly enhanced
[2]
  differentiation into adipocytes, osteocytes, and chondrocytes: well differentiated
[3]; FIG. 2A
  expression of positive markers CD44, CD73, CD90, CD105, CD166: expressed at a similar level
[3]; FIG. 2B
  expression of negative markers CD11b, CD14, CD19, CD34, CD45, HLA-DR: not expressed at a level similar to the control
